Assay results as given in PubChem BioAssay AID2060613 (Molecular Pharmacology Branch, DTP, NCI, 2025).

Tested on: 233499-124-R-J3-PDC complex spheroid viability
Assay: Anticancer human tumor 233499-124-R-J3-PDC patient-derived colon adenocarcinoma cell line growth inhibition [CLK]
Details: for viability, T/C: stronger effect = lower value
Procedure, shortened: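 Multi-cell-type spheroids combined patient-derived tumor cells with HUVEC endothelial cells and human mesenchymal stem cells. Paired agents were dosed in half-log steps down from about clinical Cmax, or from 10 microM where Cmax was unknown.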

[1] = curve of first compound, second compound 0.0316 µM
[2] = curve of first compound, second compound 0.1 µM
[3] = curve of first compound, second compound 0.316 µM
[4] = curve of first compound, second compound 1 µM
[5] = curve of first compound, second compound 3.16 µM
[6] = curve of first compound, second compound 10 µM
[7] = second compound 0.0316 µM, first compound 0.0316 µM
[8] = second compound 0.0316 µM, first compound 0.1 µM
[9] = second compound 0.0316 µM, first compound 0.316 µM
[10] = second compound 0.0316 µM, first compound 1 µM
[11] = second compound 0.0316 µM, first compound 3.16 µM
[12] = second compound 0.0316 µM, first compound 10 µM
[13] = second compound 0.1 µM, first compound 0.0316 µM
[14] = second compound 0.1 µM, first compound 0.1 µM
[15] = second compound 0.1 µM, first compound 0.316 µM
[16] = second compound 0.1 µM, first compound 1 µM
[17] = second compound 0.1 µM, first compound 3.16 µM
[18] = second compound 0.1 µM, first compound 10 µM
[19] = second compound 0.316 µM, first compound 0.0316 µM
[20] = second compound 0.316 µM, first compound 0.1 µM
[21] = second compound 0.316 µM, first compound 0.316 µM
[22] = second compound 0.316 µM, first compound 1 µM
[23] = second compound 0.316 µM, first compound 3.16 µM
[24] = second compound 0.316 µM, first compound 10 µM
[25] = second compound 1 µM, first compound 0.0316 µM
[26] = second compound 1 µM, first compound 0.1 µM
[27] = second compound 1 µM, first compound 0.316 µM
[28] = second compound 1 µM, first compound 1 µM
[29] = second compound 1 µM, first compound 3.16 µM
[30] = second compound 1 µM, first compound 10 µM
[31] = second compound 3.16 µM, first compound 0.0316 µM
[32] = second compound 3.16 µM, first compound 0.1 µM
[33] = second compound 3.16 µM, first compound 0.316 µM
[34] = second compound 3.16 µM, first compound 1 µM
[35] = second compound 3.16 µM, first compound 3.16 µM
[36] = second compound 3.16 µM, first compound 10 µM
[37] = second compound 10 µM, first compound 0.0316 µM
[38] = second compound 10 µM, first compound 0.1 µM
[39] = second compound 10 µM, first compound 0.316 µM
[40] = second compound 10 µM, first compound 1 µM
[41] = second compound 10 µM, first compound 3.16 µM
[42] = second compound 10 µM, first compound 10 µM
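Note: spheroids exposed to the drug combinations for seven days.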
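Throughout, for viability, T/C: percent viability relative to DMSO vehicle control wells taken as 100%.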

C#Cc1c(F)ccc2cc(O)cc(-c3ncc4c(N5CC6CCC(C5)N6)nc(OCC56CCCN5CC(F)C6)nc4c3F)c12 (configuration not stated) + CNC(=O)c1ccc(Nc2nc(OC3CCCC3)c3c(-c4ccc5nc(C)oc5c4)c[nH]c3n2)c(OC)c1
IC50 [1]: > 10 µM | IC50 [2]: > 10 µM | IC50 [3]: > 10 µM | IC50 [4]: > 10 µM | IC50 [5]: > 10 µM | IC50 [6]: 5.76 µM | viability, T/C [7]: 98.8% | viability, T/C [8]: 98.2% | viability, T/C [9]: 86.5% | viability, T/C [10]: 91% | viability, T/C [11]: 75.9% | viability, T/C [12]: 88.7% | viability, T/C [13]: 76.5% | viability, T/C [14]: 62.8% | viability, T/C [15]: 72.7% | viability, T/C [16]: 75.8% | viability, T/C [17]: 74.3% | viability, T/C [18]: 57.7% | viability, T/C [19]: 90.3% | viability, T/C [20]: 74.9% | viability, T/C [21]: 85.3% | viability, T/C [22]: 68.3% | viability, T/C [23]: 74.8% | viability, T/C [24]: 55% | viability, T/C [25]: 78.3% | viability, T/C [26]: 78.9% | viability, T/C [27]: 68.4% | viability, T/C [28]: 56.8% | viability, T/C [29]: 81.4% | viability, T/C [30]: 55.2% | viability, T/C [31]: 54.4% | viability, T/C [32]: 73.1% | viability, T/C [33]: 52.8% | viability, T/C [34]: 70.8% | viability, T/C [35]: 68.3% | viability, T/C [36]: 53% | viability, T/C [37]: 75.5% | viability, T/C [38]: 77.7% | viability, T/C [39]: 68.8% | viability, T/C [40]: 68.4% | viability, T/C [41]: 60.9% | viability, T/C [42]: 40.6%

NC(=O)C(=Cn1cnc(-c2cc(C(F)(F)F)cc(C(F)(F)F)c2)n1)c1cncnc1 + CNC(=O)c1ccc(Nc2nc(OC3CCCC3)c3c(-c4ccc5nc(C)oc5c4)c[nH]c3n2)c(OC)c1
IC50 [1]: 0.618 µM | IC50 [2]: 0.263 µM | IC50 [3]: 0.197 µM | IC50 [4]: 0.133 µM | IC50 [5]: 0.157 µM | IC50 [6]: 0.161 µM | viability, T/C (second compound 0.0316 µM, first compound 0.00949 µM): 85.5% | viability, T/C (second compound 0.0316 µM, first compound 0.03 µM): 85.5% | viability, T/C (second compound 0.0316 µM, first compound 0.0949 µM): 79.8% | viability, T/C (second compound 0.0316 µM, first compound 0.3 µM): 78.2% | viability, T/C (second compound 0.0316 µM, first compound 0.949 µM): 33.4% | viability, T/C (second compound 0.0316 µM, first compound 3 µM): 15.5% | viability, T/C (second compound 0.1 µM, first compound 0.00949 µM): 85.3% | viability, T/C (second compound 0.1 µM, first compound 0.03 µM): 80.8% | viability, T/C (second compound 0.1 µM, first compound 0.0949 µM): 72.8% | viability, T/C (second compound 0.1 µM, first compound 0.3 µM): 34.5% | viability, T/C (second compound 0.1 µM, first compound 0.949 µM): 44.1% | viability, T/C (second compound 0.1 µM, first compound 3 µM): 15.7% | viability, T/C (second compound 0.316 µM, first compound 0.00949 µM): 74.6% | viability, T/C (second compound 0.316 µM, first compound 0.03 µM): 90.3% | viability, T/C (second compound 0.316 µM, first compound 0.0949 µM): 81.5% | viability, T/C (second compound 0.316 µM, first compound 0.3 µM): 31.8% | viability, T/C (second compound 0.316 µM, first compound 0.949 µM): 35.3% | viability, T/C (second compound 0.316 µM, first compound 3 µM): 12% | viability, T/C (second compound 1 µM, first compound 0.00949 µM): 75.4% | viability, T/C (second compound 1 µM, first compound 0.03 µM): 75.1% | viability, T/C (second compound 1 µM, first compound 0.0949 µM): 51.2% | viability, T/C (second compound 1 µM, first compound 0.3 µM): 39.9% | viability, T/C (second compound 1 µM, first compound 0.949 µM): 11.4% | viability, T/C (second compound 1 µM, first compound 3 µM): 10.6% | viability, T/C (second compound 3.16 µM, first compound 0.00949 µM): 68.9% | viability, T/C (second compound 3.16 µM, first compound 0.03 µM): 65% | viability, T/C (second compound 3.16 µM, first compound 0.0949 µM): 71.1% | viability, T/C (second compound 3.16 µM, first compound 0.3 µM): 26.3% | viability, T/C (second compound 3.16 µM, first compound 0.949 µM): 9.48% | viability, T/C (second compound 3.16 µM, first compound 3 µM): 4.46% | viability, T/C (second compound 10 µM, first compound 0.00949 µM): 73.5% | viability, T/C (second compound 10 µM, first compound 0.03 µM): 69.8% | viability, T/C (second compound 10 µM, first compound 0.0949 µM): 67% | viability, T/C (second compound 10 µM, first compound 0.3 µM): 30.5% | viability, T/C (second compound 10 µM, first compound 0.949 µM): 6.86% | viability, T/C (second compound 10 µM, first compound 3 µM): 1.62%

CN1CCN(c2cc(C(=O)Nc3cc4cc(-c5cnn(C)c5)ccc4cn3)ccn2)CC1
viability, T/C (compound 1 µM): 1.16% [middle of 11 runs] | viability, T/C (compound 3.16 µM): 0.72% [middle of 10 runs] | viability, T/C (compound 10 µM): 0.46% [middle of 10 runs] | IC50 (compound alone, run of 07/31/2023): 529 nM [middle of 10 runs]

CC1COCCN1c1cc(C2(S(C)(=N)=O)CC2)nc(-c2ccnc3[nH]ccc23)n1 (configuration not stated) + CN1CCN(c2cc(C(=O)Nc3cc4cc(-c5cnn(C)c5)ccc4cn3)ccn2)CC1
IC50 [1]: > 10 µM | IC50 [2]: > 10 µM | IC50 [3]: 6.97 µM | IC50 [4]: < 0.0316 µM | IC50 [5]: < 0.0316 µM | IC50 [6]: < 0.0316 µM | viability, T/C [7]: 99.9% | viability, T/C [8]: 109% | viability, T/C [9]: 98.3% | viability, T/C [10]: 106% | viability, T/C [11]: 90.3% | viability, T/C [12]: 66.6% | viability, T/C [13]: 96.6% | viability, T/C [14]: 109% | viability, T/C [15]: 103% | viability, T/C [16]: 90.8% | viability, T/C [17]: 75.7% | viability, T/C [18]: 53.6% | viability, T/C [19]: 94.2% | viability, T/C [20]: 93.3% | viability, T/C [21]: 98.9% | viability, T/C [22]: 86.7% | viability, T/C [23]: 71.2% | viability, T/C [24]: 40.5% | viability, T/C [25]: 3.94% | viability, T/C [26]: 1.1% | viability, T/C [27]: 0.55% | viability, T/C [28]: 1.34% | viability, T/C [29]: 1.62% | viability, T/C [30]: 0.81% | viability, T/C [31]: 0.77% | viability, T/C [32]: 0.89% | viability, T/C [33]: 1.57% | viability, T/C [34]: 0.66% | viability, T/C [35]: 0.84% | viability, T/C [36]: 0.92% | viability, T/C [37]: 0.55% | viability, T/C [38]: 0.49% | viability, T/C [39]: 0.53% | viability, T/C [40]: 0.5% | viability, T/C [41]: 0.6% | viability, T/C [42]: 0.44%

CCc1c2c(nc3ccc(O)cc13)-c1cc3c(c(=O)n1C2)COC(=O)[C@]3(O)CC + CN1CCN(c2cc(C(=O)Nc3cc4cc(-c5cnn(C)c5)ccc4cn3)ccn2)CC1
IC50 [1]: 0.601 µM | IC50 [2]: 0.463 µM | IC50 [3]: 0.0814 µM | IC50 [4]: < 0.00316 µM | IC50 [5]: < 0.00316 µM | IC50 [6]: < 0.00316 µM | viability, T/C (second compound 0.0316 µM, first compound 0.00316 µM): 95.4% | viability, T/C (second compound 0.0316 µM, first compound 0.01 µM): 65.8% | viability, T/C [7]: 81.8% | viability, T/C [8]: 87.3% | viability, T/C [9]: 60.5% | viability, T/C [10]: 41.7% | viability, T/C (second compound 0.1 µM, first compound 0.00316 µM): 85.6% | viability, T/C (second compound 0.1 µM, first compound 0.01 µM): 82.5% | viability, T/C [13]: 88% | viability, T/C [14]: 88.1% | viability, T/C [15]: 60.7% | viability, T/C [16]: 28.4% | viability, T/C (second compound 0.316 µM, first compound 0.00316 µM): 88% | viability, T/C (second compound 0.316 µM, first compound 0.01 µM): 80.9% | viability, T/C [19]: 58.5% | viability, T/C [20]: 58.5% | viability, T/C [21]: 14.1% | viability, T/C [22]: 9.37% | viability, T/C (second compound 1 µM, first compound 0.00316 µM): 1.6% | viability, T/C (second compound 1 µM, first compound 0.01 µM): 0.5% | viability, T/C [25]: 0.39% | viability, T/C [26]: 0.38% | viability, T/C [27]: 0.35% | viability, T/C [28]: 0.47% | viability, T/C (second compound 3.16 µM, first compound 0.00316 µM): 0.46% | viability, T/C (second compound 3.16 µM, first compound 0.01 µM): 0.5% | viability, T/C [31]: 0.59% | viability, T/C [32]: 0.52% | viability, T/C [33]: 0.63% | viability, T/C [34]: 0.55% | viability, T/C (second compound 10 µM, first compound 0.00316 µM): 0.36% | viability, T/C (second compound 10 µM, first compound 0.01 µM): 0.33% | viability, T/C [37]: 0.32% | viability, T/C [38]: 0.37% | viability, T/C [39]: 0.42% | viability, T/C [40]: 0.3%
